According to US20040022789A1, “Methods and compositions for treating T cell mediated inflammatory/autoimmune diseases and disorders in subjects having a glucocorticoid regulation deficiency” (The Washington University, priority 2002, published 2004):

Columns and labels:
Format in all cases: in vivo
TGRko mice = experiment: Mortality of TGRko mice after polyclonal T cell activation with anti-CD3ε antibody; conditions: 100 μg anti-CD3ε antibody i.p., treatment before (and after) challenge
Procedure: (§1) Animal husbandry and plasma sampling: Mice were housed on a 12 h/12 h light/dark cycle with ad libitum access to rodent chow. Blood for measurement of corticosterone and cytokines was obtained by rapid retroorbital phlebotomy into heparinized capillary tubes with a total time from first handling the animal to completion of bleeding not exceeding 30 s. Plasma was separated by centrifugation and stored at −80° C. until assay. Unless otherwise noted, all mice used were 6-10 weeks old and of a C57BL/6×129/Sv genetic background.
Generation of TGRko mice: To build a TGRko targeting vector (pGRloxPneo), a loxP site was inserted into the unique Sac I site in the GR gene region upstream of exon 2 between exons 1B and 1C. A PGKneo (gene encoding for resistance to neomycin) cassette was then subcloned containing flanking loxP sites into intron 2 of the GR gene using oligonucleotide linkers. To obtain ES clones having replaced one copy of the endogenous murine GR locus with the GRloxPneo allele, TC1 ES cells were electroporated in the presence of linearized pGRloxPneo as has previously been described (See, e.g., Muglia, L. J. et al., J. Clin. Invest., 93:2066-2072 (1994)). DNA from 87 G418 resistant embryonic stem cell (ES) clones was analyzed by Southern blot, employing a probe external to the flanking regions within our targeting vector. […]

control mice = experiment: Mortality after anti-CD3ε antibody in control mice pre-treated with mifepristone (GR antagonist)
Procedure: as §1
(§2) Pharmacologic and antibody treatment: Mice were injected intraperitoneally 100 μg anti-CD3p antibody (145-2C11) diluted in 250 μl PBS. Dexamethasone-treated mice were injected intraperitoneally with 200 μg dexamethasone phosphate just prior to and eight hours after anti-CD3ε antibody challenge. Neutralizing anti-IFNγ antibody (H22, 50 μg) was injected intraperitoneally one day before anti-CD3ε antibody administration as described previously. See, e.g., Ferran, C. et al., Eur. J. Immunol, 21:2349-2353 (1991). Mifepristone (RU 486, Sigma) was dissolved in 100% ethanol (50 mg/ml). Mifepristone-treated mice were given 0.5 mg (diluted in sesame oil) s.c. the night before and one hour prior to inflammatory challenge. […]

[1] = system: adrenalectomized control mice; experiment: Mortality after anti-CD3ε antibody in adrenalectomized control mice
Procedure: Adrenalectomy: Mice were adrenalectomized as previously described and rested one week before being subjected to experimentation. See, e.g., Muglia, L. J. et al, J. Clin. Invest., 105:1269-1277 (2000).
Pharmacologic and antibody treatment: Mice were injected intraperitoneally 100 μg anti-CD3p antibody (145-2C11) diluted in 250 μl PBS. Dexamethasone-treated mice were injected intraperitoneally with 200 μg dexamethasone phosphate just prior to and eight hours after anti-CD3ε antibody challenge. Neutralizing anti-IFNγ antibody (H22, 50 μg) was injected intraperitoneally one day before anti-CD3ε antibody administration as described previously. See, e.g., Ferran, C. et al., Eur. J. Immunol, 21:2349-2353 (1991). Mifepristone (RU 486, Sigma) was dissolved in 100% ethanol (50 mg/ml). Mifepristone-treated mice were given 0.5 mg (diluted in sesame oil) s.c. the night before and one hour prior to inflammatory challenge. Cox-2 selective inhibitor-treated mice were given 300 μg of either SC-236 or NS-398 suspended in PBS/1% Tween-80 or vehicle twice a day for two days by oral gavage as previously described by Gross, G. et al, Am J. Physiol. Regul. Integr. Comp. Physiol., 278:R^1415-R^1423 (2000).

IL-2 = experiment: Plasma IL-2 after anti-CD3ε antibody (ELISA); conditions: TGRko mice; dexamethasone 200 μg before and 8 hours after anti-CD3ε antibody
Procedure: as §1
Cytokine Measurements: Plasma cytokines were measured according to manufacturer's instructions (Pharmingen).
as §2

NS(=O)(=O)c1ccc(-n2nc(C(F)(F)F)cc2-c2ccc(Cl)cc2)cc1 [SC-236]
mortality / lethality after anti-CD3ε antibody administration (TGRko mice): Protection from lethality | protection from mortality (control mice; control mice treated with mifepristone+SC-236 (m/s) compared to vehicle-treated counterparts): significantly protected | mice died within eight hours of anti-CD3ε antibody treatment ([1]; ADX+SC-236 (ADX+vehicle 4/5, Sham operated+vehicle 0/3)): 2/6 | rescue from mortality ([1]; adrenalectomized control mice, shorter timescale): essentially the same degree of rescue

C[C@@H]1C[C@H]2[C@@H]3CCC4=CC(=O)C=C[C@]4(C)[C@@]3(F)[C@@H](O)C[C@]2(C)[C@@]1(O)C(=O)CO [dexamethasone]
plasma IL-2 (IL-2): no significant effect

CC#C[C@]1(O)CC[C@H]2[C@@H]3CCC4=CC(=O)CCC4=C3[C@@H](c3ccc(N(C)C)cc3)C[C@@]21C [mifepristone]
susceptibility to the lethal effects of T cell activation (control mice; control mice, mifepristone+vehicle (m/v) compared to vehicle controls (v/v)): significantly more susceptible
